Earlier results, collected in patent US20160367620A1, “GLUTATHIONE” (priority 2015, published 2016).

Tests used:
[1] = test system: NFκB and COX-2; settings: cited from earlier work
[2] = test system: human alveolar macrophages (AM); settings: AM previously exposed to LPS; cited from earlier work
[3] = test system: influenza virus specific lymphocytes; settings: cited from earlier work
[4] = test system: murine macrophage J774 cells; settings: pretreatment; cited from earlier work
[5] = test system: NFκB activation by LPS; settings: rats; cited from earlier work
[6] = test system: human IL-4 production; settings: stimulated peripheral blood T cells, Th0- and Th2-like T cell clones; cited from earlier work
[7] = test system: HUVEC and QG90 cell; settings: pretreatment of HUVEC, IL-1 induced; cited from earlier work
[8] = test system: human immunodeficiency virus (HIV) expression; settings: U1 cells; cited from earlier work
[9] = test system: HIV-1 LTR; settings: Jurkat cells; cited from earlier work

CC(=O)N[C@@H](CS)C(=O)O [NAC, N-Acetyl-L-Cysteine]
activation of NFκB and COX-2 by H. pylori infection [1]: inhibited | IL-12 secretion [2]: enhanced | IFN γ production [3]: increased | influenza virus specific lymphocyte proliferation [3]: increased | specific activity of influenza specific CD8+ CTL's [3]: enhanced | protection of macrophages against SNAP [4]: protected | NFκB activation by LPS [5]: decreased | decrease of lung lavage neutrophil count [5]: six fold | human IL-4 production [6]: decreased in a dose-dependent manner | cell-to-cell attachment of cancer cells to HUVEC [7]: efficiently blocked the cell-to-cell attachment in a dose-dependent manner | cytotoxic or cytostatic effects [8]: absence of cytotoxic or cytostatic effects | induction of HIV expression mediated by PMA, TNF-α, or IL-6 [8]: suppressed in a dose-dependent fashion | induction of HIV-1 LTR-mediated gene expression by TNF-α and Tat [9]: significantly suppressed
